For data set [1], the system named is L. amazonensis promastigotes. The data set can be described thus: Anti-promastigote assay (resazurin viability). The conditions noted are these: for Selectivity Index (SI) CC50 J774 / IC50 promastigotes: J774A.1 vs promastigotes; for IC50: 48 h; for Selectivity Index (SI) CC50 NIH/3T3 / IC50 promastigotes: NIH/3T3 vs promastigotes; for SI (CC50 on murine peritoneal macrophages/IC50 on promastigotes): peritoneal macrophages vs promastigotes.
Protocol: (§1) Parasites in the exponential growth phase were used for the in vitro anti-promastigote assay, while those in the stationary phase were used for the anti-amastigote assay. Intracellular amastigote forms were obtained by infecting murine peritoneal macrophages with promastigotes.
Cell viability was assessed using the resazurin (Sigma-Aldrich) assay. A solution of resazurin (Sigma-Aldrich, USA) at 0.2 mg·mL^−1 was added to each well, and after 4 h of incubation at 26 °C, the absorbances at 570 nm and 600 nm were acquired, and the viability calculation for all wells was performed based on the formula and instructions provided by the AlamarBlue® manufacturer’s website (Bio-Rad, Hercules, CA, USA) [41]. Cell viability was evaluated from the optical density and compared to untreated cells. […] The half-maximal inhibitory concentration (IC50) values for each compound were calculated using a nonlinear dose–response regression curve generated by Prism 5 (GraphPad Software, USA).

A short description of data set [2]: in vitro. The conditions noted are these: mouse.
Data set [3] can be described thus: in vitro. The conditions noted are these: mouse. The source holds these as a separate data set.
The test system of data set [4] is L. amazonensis intracellular amastigotes. The experiment in a line: Anti-amastigote assay in infected murine peritoneal macrophages. The conditions noted are these: for IC50: Leishmania amazonensis, Peritoneal macrophage, in Mus musculus, 24 h, read-out: IC50 L. amazonensis Amastigotes.
Protocol: as §1
Plates were incubated at 37 °C with 5% CO2 for 1 h to allow adhesion, which was confirmed by microscopy. […] Supernatants were removed after treatment, and cells were washed twice with PBS, fixed with Bouin’s solution (Sigma-Aldrich, USA), and stained with Giemsa (Sigma-Aldrich, USA) diluted 1:10 in distilled water. Coverslips were dehydrated through an acetone/xylene gradient (100%, 70%, 50%, 30%, and 100% each from Sigma-Aldrich) and mounted for microscopic visualization. The total number of intracellular amastigotes was counted in 200 cells per coverslip in three replicates using an optical microscope. The half-maximal inhibitory concentration (IC50) values were calculated for each compound using a nonlinear regression curve in GraphPad Prism 5.0 software (GraphPad Software, San Diego, CA, USA).
The mark [5] stands for this setting: Leishmania amazonensis, read-out: IC50 L. amazonensis Promastigotes, 48 h, resazurin.
[6] abbreviates: read-out: IC50 L. amazonensis Promastigotes, resazurin.

The source of these data is paper PMC10812941, “Selenium-Containing (Hetero)Aryl Hybrids as Potential Antileishmanial Drug Candidates: In Vitro Screening against L. amazonensis” (Biomedicines, 2024).

Molecules are shown by their SMILES. Where two headings read alike, the source gives them in different places. A value given as a limit tells only on which side of the number the result lay.

Take `C[C@@H]1[C@H](O)[C@@H](C)/C=C/C=C/C=C/C=C/C=C/C=C/C=C/[C@H](O[C@@H]2O[C@H](C)[C@@H](O)[C@H](N)[C@@H]2O)C[C@@H]2O[C@](O)(C[C@@H](O)C[C@@H](O)[C@H](O)CC[C@@H](O)C[C@@H](O)CC(=O)O[C@H]1C)C[C@H](O)[C@H]2C(=O)O` [ANFB, amphotericin B, reference compound]: the “Selectivity Index (SI) CC50 J774 / IC50 promastigotes” value in data set [1] turned out to be 2.91. The IC50 was determined as 9.41 ± 1.13 µM in data set [1] (setting [5]), 9.4 ± 1.13 µM in data set [1] (setting [6]) and 0.97 ± 1.14 µM in data set [4]. For the same molecule, the “Selectivity Index (SI) CC50 NIH/3T3 / IC50 promastigotes” value in data set [1] was found to be 2.05. For the same molecule, the “SI (CC50 on murine peritoneal macrophages/IC50 on promastigotes)” value in data set [1] is given as 2.67. Also, the CC50 at 48 h in data set [2] (J774A.1 macrophage cells) is 27.3 ± 0.92 µM; in data set [3] (NIH/3T3 fibroblast cells), 19.3 ± 1.01 µM. For the same molecule, the “Selectivity Index (SI) CC50 J774 / IC50 amastigotes” value in data set [4] (J774A.1 vs intracellular amastigotes) came out at 28.19. Further, the “Selectivity Index (SI) CC50 NIH/3T3 / IC50 amastigotes” value in data set [4] (NIH/3T3 vs intracellular amastigotes) was found to be 25.92.
Consider `Oc1ccc2ccccc2c1[Se]c1ccccc1` [MRK-102], for which the IC50 is 15.2 ± 1.12 µM in data set [1] (setting [5]) and above 50 µM in data set [4]. For the same molecule, in data set [1], the “SI (CC50 on murine peritoneal macrophages/IC50 on promastigotes)” value was found to be 13.20. Further, the CC50 at 48 h in data set [2] and in data set [3] was above 200 µM throughout.
As to `Cc1ccc(-c2nnc([Se]c3ccccc3)o2)cc1` [MRK-103], the results for the IC50 in data set [1] (setting [5]) and in data set [4] were 15.5 ± 1.13 µM and above 50 µM, respectively. Moreover, in data set [1], the “SI (CC50 on murine peritoneal macrophages/IC50 on promastigotes)” value was 12.92. Besides, the CC50 at 48 h in data set [2] and in data set [3] was above 200 µM in each case.
On to `CC(C)(C)c1cc(O)cc(C(C)(C)C)c1[Se]C#N` [MRK-105], for which, in data set [1], the “Selectivity Index (SI) CC50 J774 / IC50 promastigotes” value stood at 4.94. Besides, the IC50 is 15.5 µM in data set [1] (setting [5]), 12.2 ± 1.12 µM in data set [1] (setting [6]) and above 50 µM in data set [4]. In data set [1], the “Selectivity Index (SI) CC50 NIH/3T3 / IC50 promastigotes” value was 7.22. For the same molecule, the “SI (CC50 on murine peritoneal macrophages/IC50 on promastigotes)” value in data set [1] worked out at 12.92; in data set [1] (listed as 105) it was 16.43.
As to `COc1ccccc1[Se]c1c(-c2ccccc2)nc2cc(C)ccn12` [MRK-107], in data set [1], the “Selectivity Index (SI) CC50 J774 / IC50 promastigotes” value came out at 7.31, the “Selectivity Index (SI) CC50 NIH/3T3 / IC50 promastigotes” value amounted to 7.31 and the “SI (CC50 on murine peritoneal macrophages/IC50 on promastigotes)” value is listed as 7.31. Also, the IC50 in data set [1] (setting [5]) worked out at 27.4 ± 1.24 µM. The same molecule returned a CC50 at 48 h in data set [2] above 200 µM. This molecule also returned a CC50 at 48 h in data set [3] above 200 µM. Also, in data set [4], the “Selectivity Index (SI) CC50 J774 / IC50 amastigotes” value is given as 10.92, the “Selectivity Index (SI) CC50 NIH/3T3 / IC50 amastigotes” value worked out at 10.92 and the IC50 stood at 18.3 ± 1.5 µM.
For the molecule `N#C[Se]Cc1cc(=O)oc2cc(O)ccc12` [MRK-108], the values for the IC50 in data set [1] (setting [5]) and in data set [4] were 4.23 ± 2 µM and above 50 µM, respectively. For the same molecule, the “SI (CC50 on murine peritoneal macrophages/IC50 on promastigotes)” value in data set [1] is above 47.31; in data set [1] (listed as 108), 47.31. Moreover, the CC50 at 48 h in data set [2] and in data set [3] was above 200 µM each time.
With `Cc1cn2c([Se]c3ccccc3)c(-c3ccccc3)nc2s1` [MRK-111], the IC50 in data set [1] (setting [5]) is 17.6 ± 1.18 µM; in data set [4], above 50 µM. In data set [1], the “SI (CC50 on murine peritoneal macrophages/IC50 on promastigotes)” value worked out at 11.40. The CC50 at 48 h in data set [2] and in data set [3] was above 200 µM in each case.
Turning to `Cc1ccn2c([Se]c3ccccc3)c(-c3ccccc3)nc2c1` [MRK-113], in data set [1], the “Selectivity Index (SI) CC50 J774 / IC50 promastigotes” value came to 4.88, the “Selectivity Index (SI) CC50 NIH/3T3 / IC50 promastigotes” value was determined as 4.88 and the “SI (CC50 on murine peritoneal macrophages/IC50 on promastigotes)” value was 4.88. The IC50 in data set [1] (setting [5]) turned out to be 41 ± 1.31 µM. Moreover, the CC50 at 48 h in data set [2] was above 200 µM. In data set [3], this molecule came in with a CC50 at 48 h above 200 µM. Besides, in data set [4], the “Selectivity Index (SI) CC50 J774 / IC50 amastigotes” value is on record as 12.55, the “Selectivity Index (SI) CC50 NIH/3T3 / IC50 amastigotes” value came out at 12.55 and the IC50 was 15.9 ± 1.69 µM.

By IC50 is commonly meant the concentration that inhibits the measured activity by half.
